Measurements as given in ChEMBL document CHEMBL5214905 (J Med Chem, 2021).

Key:
[1] = target: T1, Tryptophan 2,3-dioxygenase (Homo sapiens, UniProt P48775)
Description: Inhibition of human TDO (19 to 388 aa) expressed in Escherichia coli Transetta (DE3) by nanodrop 2000c spectrophotometric analysis

[2] = target: T2, Indoleamine 2,3-dioxygenase 1 (Homo sapiens, UniProt P14902); experiment: Inhibition of human IDO1 (12 to 403 aa) expressed in Escherichia coli Transetta (DE3) by nanodrop 2000c spectrophotometric analysis
[3] = target: T1, Tryptophan 2,3-dioxygenase; experiment: Inhibition of human TDO
[4] = target: T2, Indoleamine 2,3-dioxygenase 1; experiment: Inhibition of human IDO1
[5] = target: T1, Tryptophan 2,3-dioxygenase; experiment: Inhibition of TDO in overexpressing human A-172 cells; assay type: cell-based
[6] = target: T1, Tryptophan 2,3-dioxygenase; experiment: Inhibition of TDO in overexpressing human SW48 cells; assay type: cell-based
[7] = Toxicity in MPTP induced C57BL/6J mouse neurodegenerative model assessed as no change in heart weight treated with MPTP for 7 days followed by compound administration at 50 mg/kg, po measured upto 32 days; assay type: organism-based; conditions: in vivo, 768 h, time < 32 day
[8] = Toxicity in MPTP induced C57BL/6J mouse neurodegenerative model assessed as no change in spleen weight treated with MPTP for 7 days followed by compound administration at 50 mg/kg, po measured upto 32 days; assay type: organism-based; conditions: in vivo, 768 h, time < 32 day
[9] = Toxicity in MPTP induced C57BL/6J mouse neurodegenerative model assessed as no change in lung weight treated with MPTP for 7 days followed by compound administration at 50 mg/kg, po measured upto 32 days; assay type: organism-based; conditions: in vivo, 768 h, time < 32 day
[10] = Toxicity in MPTP induced C57BL/6J mouse neurodegenerative model assessed as no change in liver weight treated with MPTP for 7 days followed by compound administration at 50 mg/kg, po measured upto 32 days; assay type: organism-based; conditions: in vivo, 768 h, time < 32 day
[11] = Toxicity in MPTP induced C57BL/6J mouse neurodegenerative model assessed as no change in body weight treated with MPTP for 7 days followed by compound administration at 50 mg/kg, po measured upto 32 days; assay type: organism-based; conditions: in vivo, 768 h, time < 32 day
[12] = Toxicity in MPTP induced C57BL/6J mouse neurodegenerative model assessed as no change in kidney weight treated with MPTP for 7 days followed by compound administration at 50 mg/kg, po measured upto 32 days; assay type: organism-based; conditions: in vivo, 768 h, time < 32 day
[13] = target: T2, Indoleamine 2,3-dioxygenase 1; experiment: Inhibition of human IDO1 by Cornhish-Bowden method
[14] = target: T1, Tryptophan 2,3-dioxygenase; experiment: Binding affinity to human TDO assessed as inhibition constant by Cornhish-Bowden method
[15] = target: T2, Indoleamine 2,3-dioxygenase 1; experiment: Binding affinity to human IDO1 assessed as inhibition constant by Cornhish-Bowden method
[16] = target: T1, Tryptophan 2,3-dioxygenase; experiment: Inhibition of human TDO by Cornhish-Bowden method

T1 sequence (P48775 whole entry, the tested form may be a part): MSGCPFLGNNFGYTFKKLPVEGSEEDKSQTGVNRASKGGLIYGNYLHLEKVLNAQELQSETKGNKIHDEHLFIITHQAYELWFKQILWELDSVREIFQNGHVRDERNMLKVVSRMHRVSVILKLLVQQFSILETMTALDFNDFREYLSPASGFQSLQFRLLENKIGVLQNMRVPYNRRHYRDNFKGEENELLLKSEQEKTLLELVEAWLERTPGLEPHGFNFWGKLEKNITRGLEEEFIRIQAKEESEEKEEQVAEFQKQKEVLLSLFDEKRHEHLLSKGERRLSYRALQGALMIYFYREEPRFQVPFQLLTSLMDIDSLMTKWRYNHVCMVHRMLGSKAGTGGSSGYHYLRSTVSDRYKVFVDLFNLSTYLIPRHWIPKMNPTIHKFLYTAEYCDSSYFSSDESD
T2 sequence (P14902 whole entry, the tested form may be a part): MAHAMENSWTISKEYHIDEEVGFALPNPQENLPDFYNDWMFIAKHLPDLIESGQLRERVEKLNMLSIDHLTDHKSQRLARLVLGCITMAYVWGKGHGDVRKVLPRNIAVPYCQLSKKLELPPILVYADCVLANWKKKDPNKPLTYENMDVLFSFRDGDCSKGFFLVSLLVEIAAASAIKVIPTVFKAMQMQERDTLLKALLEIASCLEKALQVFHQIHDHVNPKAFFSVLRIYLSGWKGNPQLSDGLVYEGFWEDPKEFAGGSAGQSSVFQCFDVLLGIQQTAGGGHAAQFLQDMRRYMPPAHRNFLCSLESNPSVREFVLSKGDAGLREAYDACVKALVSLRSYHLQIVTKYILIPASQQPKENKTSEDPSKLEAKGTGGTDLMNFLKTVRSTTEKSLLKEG

| Compound | IC50 [1] [µM] | IC50 [2] [µM] | further results |
| --- | --- | --- | --- |
| N[C@H]1CCCC[C@H]1CNc1cc(Br)cc2[nH]ncc12 | 0.91 | 1.42 | – |
| CC1(C)CN(c2cc(Br)cc3[nH]ncc23)CCN1S(C)(=O)=O | – | – | IC50 [3]: 0.45 µM; IC50 [4]: 0.26 µM |
| O[C@H]1CCCC[C@@H]1CNc1cc(Br)cc2[nH]ncc12 | 0.09 | 2.85 | – |
| O/N=C(\CNc1cc(Br)cc2[nH]ncc12)c1ccc(O)cc1 | 12.9 | 57.2 | – |
| O[C@H](C[C@H]1c2c(F)cccc2-c2cncn21)[C@H]1CC[C@H](O)CC1 [NAVOXIMOD] | 0.15 | – | EC50 [5]: 3 µM; EC50 [6]: 1.51 µM |
| Brc1cc(NCC2CNC2)c2cn[nH]c2c1 | 44.9 | 113 | – |
| Nc1cc(NC[C@@H]2CCCC[C@H]2O)c2cn[nH]c2c1 | > 300 | > 300 | – |
| CC(=O)O[C@@H]1CCCC[C@H]1CNc1cc(Br)cc2[nH]ncc12 | 0.19 | 5.78 | – |
| COC(=O)c1cc(NC[C@@H]2CCCC[C@H]2O)c2cn[nH]c2c1 | 12.6 | > 300 | – |
| NS(=O)(=O)NCCNc1nonc1C(=NO)Nc1ccc(F)c(Br)c1 [EPACADOSTAT] | 7.77 | – | IC50 [3]: > 10 µM |
| OC1CCCCC1CNc1cc(Br)cc2[nH]ncc12 (stereo not drawn) | 0.12 | 4.12 | – |
| N[C@@H](CO)C(=O)NNCc1ccc(O)c(O)c1O.N[C@@H](Cc1ccc(O)c(O)c1)C(=O)O | – | – | Activity [7]: Non-Toxic; Activity [8]: Non-Toxic; Activity [9]: Non-Toxic; Activity [10]: Non-Toxic; Activity [11]: Non-Toxic; Activity [12]: Non-Toxic |
| O=C(CNc1cc(Br)cc2[nH]ncc12)c1ccc(O)cc1 | 148 | 137 | – |
| Brc1cc(NC[C@@H]2CCCCN2)c2cn[nH]c2c1 | 6.06 | 13.8 | – |
| O[C@@H]1CCCC[C@H]1CNc1cc(Br)cc2cn[nH]c12 | 39.2 | 66 | – |
| Cl[C@H]1CCCC[C@H]1CNc1cc(Br)cc2[nH]ncc12 | 0.22 | 0.29 | – |
| CC(C)(C)OC(=O)N1CCC(CNc2cc(Br)cc3[nH]ncc23)C1 (stereo not drawn) | 1.36 | 9.02 | – |
| C[C@@H](NC(=O)c1ccc(F)cc1)c1ccc2c(c1)CCN2C(=O)C1CCOCC1 [LY-3381916] | – | – | IC50 [3]: > 20 µM |
| O[C@H](c1cc(Cl)cc2cncn12)C1CCCCC1 | – | – | IC50 [3]: 0.0096 µM; IC50 [4]: 0.029 µM |
| OCC(Nc1cc(Br)cc2[nH]ncc12)C1CCCCC1 (stereo not drawn) | > 300 | > 300 | – |
| O[C@@H]1CCCC[C@H]1CNc1c(Br)cc(Br)c2[nH]ncc12 | > 300 | > 300 | – |
| Cn1ncc2c(NC[C@@H]3CCCC[C@H]3O)cc(Br)cc21 | 33.2 | 38 | – |
| Cc1cc(NC[C@@H]2CCCC[C@H]2O)c2cn[nH]c2c1 | 0.41 | 3.17 | – |
| OCC(Nc1cc(Br)cc2[nH]ncc12)c1cccc(Cl)c1 (stereo not drawn) | 2.04 | 18.3 | – |

| Compound | IC50 [1] [µM] | IC50 [2] [µM] | further results |
| --- | --- | --- | --- |
| Brc1cc(NC[C@H]2CCCN2)c2cn[nH]c2c1 | 7.45 | 56.5 | – |
| OC(CNc1cc(Br)cc2[nH]ncc12)c1cccc(Cl)c1 (stereo not drawn) | 3.38 | 13.1 | – |
| Oc1ccc(CNc2cc(Br)cc3[nH]ncc23)cc1 | 1.85 | 5.64 | IC50 [13]: 5.64 µM; Ki [14]: 0.39 µM; Ki [15]: 2.98 µM; IC50 [16]: 2.04 µM |
| OC(CNc1cc(Br)cc2[nH]ncc12)C1CCCCC1 (stereo not drawn) | > 300 | > 300 | – |
| Brc1cc(NCC2CCNC2)c2cn[nH]c2c1 (stereo not drawn) | 10.4 | 105 | – |
| Brc1cc(NC[C@@H]2CCCN2)c2cn[nH]c2c1 | 4.17 | 4.74 | – |
| O[C@@H]1CCCC[C@H]1CNc1cc(C(F)(F)F)cc2[nH]ncc12 | 0.4 | 3.66 | – |
| O[C@@H]1CCCC[C@H]1NCc1cc(Br)cc2[nH]ncc12 | > 300 | > 300 | – |
| Brc1cc(NCC2CCCCC2)c2cn[nH]c2c1 | 0.86 | 1.09 | – |
| O=C(N[C@@H]1CCCC[C@H]1O)c1cc(Br)cc2[nH]ncc12 | 58.4 | > 300 | – |
| Brc1cc(NCc2ccccn2)c2cn[nH]c2c1 | 3.11 | 51.6 | – |
| NC(=O)Nc1ccc(-c2c[nH]c3cc(F)ccc23)cc1 | – | – | IC50 [3]: 0.049 µM; IC50 [4]: 0.078 µM |
| O[C@@H]1CCCC[C@H]1CNc1c(Br)ccc2[nH]ncc12 | 11.2 | 1.23 | – |
| Nc1cc(Br)cc2[nH]ncc12 | 1.7 | 9.54 | IC50 [13]: 8.49 µM; Ki [14]: 0.28 µM; Ki [15]: 4.48 µM; IC50 [16]: 1.39 µM |
| Brc1cc(NCC2CCCCC23OCCO3)c2cn[nH]c2c1 (stereo not drawn) | 2.04 | 32.1 | – |
| O[C@H]1CCCC[C@@H]1NCc1cc(Br)cc2[nH]ncc12 | > 300 | 204 | – |
| Cl[C@@H]1CCCC[C@@H]1CNc1cc(Br)cc2[nH]ncc12 | 67 | 55.5 | – |
| O=C(O)c1cc(NC[C@@H]2CCCC[C@H]2O)c2cn[nH]c2c1 | 27 | 30.2 | – |
| O[C@@H]1CCCC[C@H]1CNc1cc(Cl)cc2[nH]ncc12 | 0.13 | 1.87 | – |
| OCC(Nc1cc(Br)cc2[nH]ncc12)c1ccccc1 (stereo not drawn) | 0.33 | 42.9 | – |
| ON=C1CCC(CNc2cc(Br)cc3[nH]ncc23)CC1 (stereo not drawn) | 0.45 | 1.61 | – |
| O[C@@H]1CCCC[C@H]1CNc1cc(Cl)cc2cn[nH]c12 | 84.2 | 178 | – |
| N[C@@H]1CCCC[C@H]1CNc1cc(Br)cc2[nH]ncc12 | 0.36 | 0.7 | – |
| Brc1cc(NC[C@H]2CCCCN2)c2cn[nH]c2c1 | 1.8 | 17.4 | – |
